Measured values published in US9790215B2 (FLATLEY DISCOVERY LAB, LLC, priority 2013, dated 2017).
Each block holds one compound with its values, some of them ahead of it.

Biological target: T1, human ΔF508-CFTR (Homo sapiens, UniProt P13569, DEL508-508)
T1 construct: expressed in transfected cells
Assay: CFTR-YFP High Throughput Assay (YFP halide flux in FRT cells)
Format: cell-based
Conditions: FRT cells expressing human ΔF508-CFTR and YFP; for EC50: forskolin stimulated
Protocol: Assays for Detecting and Measuring the Effect of Compounds on dF508-CFTR Channels CFRT-YFP High Throughput Assay:
The following protocol is designed to selectively screen small molecule compounds for F508del CFTR corrector activities in the HTS YFP flux assay. In this protocol, the cells are incubated with testing compounds for 24 hours, washed with PBS, stimulated with forskolin and a standard potentiator, and read on a 384-well HTS plate reader, such as the Hamamatsu FDDD-6000.
(§1) YFP fluorescence intensity is acquired at high speed before and after iodide buffer is injected to the assay cells. Iodide enters the cells via active CFTR channels in the plasma membrane, and quenches the YFP fluorescence. The rate of fluorescence quenching is proportionally related to the total CFTR activities in the cell membrane. dF508-CFTR corrector accelerates YFP quenching by increasing the number of CFTR molecules in the testing cell plasma membrane.
This method was initially developed for bench top plate readers (Galietta et al., 2001), and was adapted to the HTS format (Sui et al. Assay Drug Dev. Technol. 2010).
Fisher Rat Thyroid (FRT) cells stably expressing both human AF508-CFTR and a halide-sensitive yellow fluorescent protein (YFP—H148Q/1152L 25, 22) (Galietta et al., Am. J. Physiol Cell Physiol 281(5), C1734, 2001) were cultured on plastic surface in Coon's modified Ham's F12 medium supplemented with FBS 10%, L-glutamine 2 mM, penicillin 100 U/mL, and streptomycin 100 μg/mL. G418 (0.75-1.0 mg/mL) and zeocin (3.2 ug/mL) were used for selection of FRT cells expressing ΔF508-CFTR and YFP. For primary screening, FRT cells were plated into 384-well black wall, transparent bottom microtiter plates (Costar; Corning Inc.) at a cell density of 20,000-40,000 per well. Test compound was applied to the cells at varying concentrations ranging from […] in either a 2-fold or 3-fold dilution series. Cells were incubated in a cell culture incubator at 37° C. with 5% CO2 for 24-26 h. Assay plates were washed with DPBS media (Thermo, cat# SH30028.02) to remove unbound cells and compound. Stimulation media (25 μL) containing 20 μM Forskolin & 30 μM P3 [6-(Ethyl-phenyl-sulfonyl)-4-oxo-1,4-dihydro-quinoline-3-carboxylic acid 2-methoxy-benzylamide] in Hams F-12 coon's modified media was added to the plate wells and incubated at room temperature for 60-120 min. 25 μL of HEPES-PBS-I buffer (10 mM HEPES, 1 mM MgCl2, 3 mM KCl, 1 mM CaCl2, 150 mM NaI) was then added and fluorescence quench curves (Excitation 500 nm/Emission 540 nm; exposure 136 ms) were immediately recorded on an FDSS-6000 plate reader (Hamamatsu). Quench rates were derived from least squares fitting of the data as described by Sui et al., (2010).
The following protocol is designed to selectively screen small molecule compounds for F508del CFTR potentiator activities in the HTS YFP flux assay. In this protocol, the cells are incubated at 27 C for 24 hours with homogeneously boosted dF508-CFTR expression in the cell membrane by the low temperature, washed with PBS, stimulated with forskolin, and read on a 384-well HTS plate reader, such as the Hamamatsu FDDD-6000.
as §1, with “dF508del-CFTR potentiators accelerate” for “dF508-CFTR corrector accelerates”, “increasing” for “increasing the number of”, “activities” for “molecules”
Fisher Rat Thyroid (FRT) cells stably expressing both human ΔF508-CFTR and a halide-sensitive yellow fluorescent protein (YFP-H148Q/I152L 25, 22) (Galietta et al., Am. J. Physiol Cell Physiol 281(5), C1734, 2001) were cultured on plastic surface in Coon's modified Ham's F12 medium supplemented with FBS 10%, L-glutamine 2 mM, penicillin 100 U/mL, and streptomycin 100 μg/mL. […]

T1 sequence (P13569 with tags, fused parts or gaps DEL508-508): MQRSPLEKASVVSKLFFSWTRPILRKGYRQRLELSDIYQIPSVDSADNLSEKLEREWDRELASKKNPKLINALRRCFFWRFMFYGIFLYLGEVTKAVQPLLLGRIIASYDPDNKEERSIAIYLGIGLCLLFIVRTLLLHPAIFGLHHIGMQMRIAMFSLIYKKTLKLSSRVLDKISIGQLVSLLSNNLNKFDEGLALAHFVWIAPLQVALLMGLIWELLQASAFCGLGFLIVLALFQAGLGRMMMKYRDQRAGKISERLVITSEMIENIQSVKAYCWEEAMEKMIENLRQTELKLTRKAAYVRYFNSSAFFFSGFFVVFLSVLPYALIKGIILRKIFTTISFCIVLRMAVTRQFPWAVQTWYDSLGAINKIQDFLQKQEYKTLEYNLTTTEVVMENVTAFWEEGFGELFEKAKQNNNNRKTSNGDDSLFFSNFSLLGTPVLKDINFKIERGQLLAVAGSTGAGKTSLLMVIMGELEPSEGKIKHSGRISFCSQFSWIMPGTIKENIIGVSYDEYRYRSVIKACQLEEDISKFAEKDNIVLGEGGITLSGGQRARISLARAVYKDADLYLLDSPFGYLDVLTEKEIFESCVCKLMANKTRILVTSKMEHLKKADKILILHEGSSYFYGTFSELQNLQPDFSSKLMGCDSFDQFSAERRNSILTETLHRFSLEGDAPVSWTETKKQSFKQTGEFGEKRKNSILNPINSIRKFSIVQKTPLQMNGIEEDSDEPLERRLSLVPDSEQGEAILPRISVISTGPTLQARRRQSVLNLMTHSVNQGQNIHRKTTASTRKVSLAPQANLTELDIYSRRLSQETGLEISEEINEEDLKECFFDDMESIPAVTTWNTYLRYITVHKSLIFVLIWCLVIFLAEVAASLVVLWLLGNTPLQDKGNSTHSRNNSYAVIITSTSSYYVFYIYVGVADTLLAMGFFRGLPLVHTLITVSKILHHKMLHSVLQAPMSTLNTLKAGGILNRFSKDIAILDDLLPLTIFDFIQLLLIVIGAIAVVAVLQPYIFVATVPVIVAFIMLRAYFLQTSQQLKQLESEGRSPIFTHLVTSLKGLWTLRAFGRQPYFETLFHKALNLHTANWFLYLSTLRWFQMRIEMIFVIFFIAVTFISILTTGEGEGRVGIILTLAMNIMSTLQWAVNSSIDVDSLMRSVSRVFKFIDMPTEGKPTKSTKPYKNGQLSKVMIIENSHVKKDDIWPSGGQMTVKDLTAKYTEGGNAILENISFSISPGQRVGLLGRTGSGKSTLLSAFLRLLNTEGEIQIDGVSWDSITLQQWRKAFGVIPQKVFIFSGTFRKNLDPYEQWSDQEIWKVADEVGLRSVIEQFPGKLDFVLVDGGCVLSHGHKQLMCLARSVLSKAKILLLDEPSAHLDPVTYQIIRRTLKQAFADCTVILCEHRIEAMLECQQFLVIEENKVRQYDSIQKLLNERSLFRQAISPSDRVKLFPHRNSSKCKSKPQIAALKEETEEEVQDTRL

Compound: 2-(4-(3-chlorophenyl)-1-oxophthalazin-2(1H)-yl)-N-(2,2-difluorobenzo[d][1,3]dioxol-5-yl)-N-ethylacetamide [Example 21]
% Efficacy (Emax normalized to the positive control): +++ (EMAX > 80%)
EC50: < 10 µM

Compound: 2-(4-(3-cyanophenyl)-1-oxophthalazin-2(1H)-yl)-N-(2,2-difluorobenzo[d][1,3]dioxol-5-yl)-N-ethylacetamide [Example 20]
% Efficacy (Emax normalized to the positive control): ++ (a range of 80%-30%)
EC50: > 20 µM

Compound: 2-(4-(benzo[d][1,3]dioxol-4-yl)-1-oxophthalazin-2(1H)-yl)-N-ethyl-N-(4-ethylphenyl)acetamide [Example 9]
% Efficacy (Emax normalized to the positive control): + (a range of 30%-10%)
EC50: < 10 µM

Compound: 3-(3-(2-(ethyl(4-ethylphenyl)amino)-2-oxoethyl)-4-oxo-3,4-dihydrophthalazin-1-yl)benzamide [Example 10]
% Efficacy (Emax normalized to the positive control): + (a range of 30%-10%)
EC50: > 20 µM

Compound: 4-(3-(2-((2,2-difluorobenzo[d][1,3]dioxol-5-yl)(ethyl)amino)-2-oxoethyl)-4-oxo-3,4-dihydro-phthalazin-1-yl)benzamide [Example 18]
% Efficacy (Emax normalized to the positive control): +++ (EMAX > 80%)
EC50: 10 to 20 µM

Compound: 4-(3-(2-((2,2-difluorobenzo[d][1,3]dioxol-5-yl)(ethyl)amino)-2-oxoethyl)-4-oxo-3,4-dihydrophthalazin-1-yl)benzoic acid [Example 19]
% Efficacy (Emax normalized to the positive control): +++ (EMAX > 80%)
EC50: 10 to 20 µM

Compound: 4-(3-(2-(ethyl(4-ethylphenyl)amino)-2-oxoethyl)-4-oxo-3,4-dihydrophthalazin-1-yl)benzamide [Example 11]
% Efficacy (Emax normalized to the positive control): ++ (a range of 80%-30%)
EC50: 10 to 20 µM

Compound: 4-(3-(2-(ethyl(4-ethylphenyl)amino)-2-oxoethyl)-4-oxo-3,4-dihydrophthalazin-1-yl)benzoic acid [Example 13]
% Efficacy (Emax normalized to the positive control): ++ (a range of 80%-30%)
EC50: 10 to 20 µM

Compound: CCc1ccc(N(CC)C(=O)Cn2nc(-c3ccncc3)c3ccccc3c2=O)cc1 [Example 4, N-ethyl-N-(4-ethylphenyl)-2-(1-oxo-4-(pyridin-4-yl)phthalazin-2(1H)-yl)acetamide]
EC50: > 20 µM

Compound: CCc1ccc(N(CC)C(=O)Cn2nc(-c3cccc4ncccc34)c3ccccc3c2=O)cc1 [Example 5, N-ethyl-N-(4-ethylphenyl)-2-(1-oxo-4-(quinolin-5-yl)phthalazin-2(1H)-yl)acetamide]
EC50: 10 to 20 µM

Compound: CCN(C(=O)Cn1nc(-c2cccnc2)c2ccccc2c1=O)c1ccc2c(c1)OC(F)(F)O2 [Example 24]
EC50: > 20 µM

Compound: CCc1ccc(N(CC)C(=O)Cn2nc(Cc3cccnc3)c3ccccc3c2=O)cc1 [Example 25, N-ethyl-N-(4-ethylphenyl)-2-(1-oxo-4-(pyridin-3-ylmethyl)phthalazin-2(1H)-yl)acetamide]
EC50: < 10 µM

Compound: CCN(C(=O)Cn1nc(Cc2cccnc2)c2ccccc2c1=O)c1ccc2c(c1)OC(F)(F)O2 [Example 26, N-(2,2-difluorobenzo[d][1,3]dioxol-5-yl)-N-ethyl-2-(1-oxo-4-(pyridin-3-ylmethyl)phthalazin-2(1H)-yl)acetamide]
EC50: < 10 µM

Compound: CCc1ccc(N(CC)C(=O)Cn2nc(Cc3cccnc3)c3ccc(C)cc3c2=O)cc1 [Example 28, N-ethyl-N-(4-ethylphenyl)-2-(7-methyl-1-oxo-4-(pyridin-3-ylmethyl)phthalazin-2(1H)-yl)acetamide]
EC50: < 10 µM

Compound: CCc1ccc(N(CC)C(=O)Cn2nc(Cc3cccnc3)c3cccc(C)c3c2=O)cc1 [Example 30, N-ethyl-N-(4-ethylphenyl)-2-(8-methyl-1-oxo-4-(pyridin-3-ylmethyl)phthalazin-2(1H)-yl)acetamide]
EC50: < 10 µM

Compound: CCc1ccc(N(CC)C(=O)Cn2nc(Cc3cccnc3)c3ccc(C(C)(C)C)cc3c2=O)cc1 [Example 33, 2-(7-(tert-butyl)-1-oxo-4-(pyridin-3-ylmethyl)phthalazin-2(1H)-yl)-N-ethyl-N-(4-ethylphenyl)acetamide]
EC50: < 10 µM

Continued, values first:

% Efficacy (Emax normalized to the positive control): ++ (a range of 80%-30%)
EC50: > 20 µM
Compound: 2-(4-(3-aminophenyl)-1-oxophthalazin-2(1H)-yl)-N-ethyl-N-(4-ethylphenyl)acetamide [Example 7]

% Efficacy (Emax normalized to the positive control): ++ (a range of 80%-30%)
EC50: < 10 µM
Compound: 2-(4-(3-cyanophenyl)-1-oxophthalazin-2(1H)-yl)-N-ethyl-N-(4-ethylphenyl)acetamide [Example 16]

EC50: 10 to 20 µM
Compound: CCc1ccc(N(CC)C(=O)Cn2nc(-c3ccccc3)c3ccccc3c2=O)cc1 [Example 1, N-ethyl-N-(4-ethylphenyl)-2-(1-oxo-4-phenylphthalazin-2(1H)-yl)acetamide]

EC50: < 10 µM
Compound: CCc1ccc(N(CC)C(=O)Cn2nc(-c3ccc(O)cc3)c3ccccc3c2=O)cc1 [Example 2, N-ethyl-N-(4-ethylphenyl)-2-(4-(4-hydroxyphenyl)-1-oxophthalazin-2(1H)-yl)acetamide]

EC50: > 20 µM
Compound: CCc1ccc(N(CC)C(=O)Cn2nc(-c3cccnc3)c3ccccc3c2=O)cc1 [Example 3, N-ethyl-N-(4-ethylphenyl)-2-(1-oxo-4-(pyridin-3-yl)phthalazin-2(1H)-yl)acetamide]

EC50: < 10 µM
Compound: CCc1ccc(N(CC)C(=O)Cn2nc(-c3cccc4cnccc34)c3ccccc3c2=O)cc1 [Example 6, N-ethyl-N-(4-ethylphenyl)-2-(4-(isoquinolin-5-yl)-1-oxophthalazin-2(1H)-yl)acetamide]

EC50: < 10 µM
Compound: COc1ccc(N(C)C(=O)Cn2nc(Cc3cccnc3)c3ccccc3c2=O)cc1 [Example 27, N-(4-methoxyphenyl)-N-methyl-2-(1-oxo-4-(pyridin-3-ylmethyl)phthalazin-2(1H)-yl)acetamide]

EC50: < 10 µM
Compound: CCc1ccc(N(CC)C(=O)Cn2nc(Cc3cccnc3)c3cc(C)ccc3c2=O)cc1 [Example 29, N-ethyl-N-(4-ethylphenyl)-2-(6-methyl-1-oxo-4-(pyridin-3-ylmethyl)phthalazin-2(1H)-yl)acetamide]

EC50: < 10 µM
Compound: CCc1ccc(N(CC)C(=O)Cn2nc(Cc3cccnc3)c3c(C)cccc3c2=O)cc1 [Example 31, N-ethyl-N-(4-ethylphenyl)-2-(5-methyl-1-oxo-4-(pyridin-3-ylmethyl)phthalazin-2(1H)-yl)acetamide]

EC50: < 10 µM
Compound: CCc1ccc(N(CC)C(=O)Cn2nc(Cc3cccnc3)c3cc(OC)c(OC)cc3c2=O)cc1 [Example 32, 2-(6,7-dimethoxy-1-oxo-4-(pyridin-3-ylmethyl)phthalazin-2(1H)-yl)-N-ethyl-N-(4-ethylphenyl)acetamide]

EC50: < 10 µM
Compound: CCc1ccc(N(CC)C(=O)Cn2nc(Cc3cccnc3)c3cc(C(C)(C)C)ccc3c2=O)cc1 [Example 34, 2-(6-(tert-butyl)-1-oxo-4-(pyridin-3-ylmethyl)phthalazin-2(1H)-yl)-N-ethyl-N-(4-ethylphenyl)acetamide]

EC50: < 10 µM
Compound: CCc1ccc(N(CC)C(=O)Cn2nc(Cc3cccnc3)c3ccc(OC)cc3c2=O)cc1 [Example 35, N-ethyl-N-(4-ethylphenyl)-2-(7-methoxy-1-oxo-4-(pyridin-3-ylmethyl)phthalazin-2(1H)-yl)acetamide]
